According to patent US10421782B2, “Cyclic cationic peptides with antimicrobial activity” (I.C.F. S.R.L., priority 2012, dated 2019):
≈ marks a conversion by molar mass, not a printed value. Where “and” joins values, the source holds several entries; their conditions need not be identical. Equal values may be shown once. Read-outs that look alike come from different tables or passages of the source.

Columns and labels:
E. coli ML-35pYC = assay: Membrane permeabilization assay (CENTA / ONPG kinetics); format: cell-based, Escherichia coli; conditions: peptide 12.5 μg/ml, logistic 4-parameter fit, read up to 240 min
Method: The strain ML-35pYC of E. coli was used to assay the kinetics of membrane permeabilization performed by the peptides of the invention. This bacterial strain expresses resistance to ampicillin, constitutive expression of cytoplasmic beta-galactosidase, and is engineered with a plasmid for the synthesis of a periplasmic beta-lactamase. Sixty microliters (60 μl) of bacterial suspension of strain ML-35pYC of E. coli were added to 60 μl of a 15 mM solution of ONPG or 1.5 mM of CENTA in phosphate buffer. Subsequently, 120 μl of the test peptides were added to obtain a final concentration of 12.5 μg/ml. The kinetics of the reaction was evaluated by recording the value of absorbance at […] and 405 nm, for ONPG and CENTA respectively, every 10 min up to a maximum of 240 min.
By “fitting” the experimental points with the logistic 4-parameter curve, it was possible to determine the inflexion point, that is the point where the curve changes direction, relative to the 3 test peptides. No inflexion point was observed during the assay with CENTA (inflexion point higher than 500 min).

[1] = test system: Malassezia pachydermatis ATCC 14522; assay: Broth-microdilution test and subsequent plating on agar, fungi (yeasts); format: cell-based; conditions: 2 h contact at 37° C., CFU count on agar Sabouraud
Method: (§1) The inoculum was set up by culturing Candida albicans ATCC 10231 and Malassezia pachydermatis ATCC 14522 in Czapek-Dox broth medium (DIFCO) for 48-72 h. On the assay day, the fungal culture was centrifuged at 1700×g for 15 min, the pellet was resuspended in phosphate buffer and submitted to shaking by the use of an electric vortex to disperse the fungal cell aggregates. The suspension was diluted until an optical density equal to an opacity of 0.5 on the McFarland turbidimetric scale was reached, which contains approximately 1-5×10^6 cell/ml (Branda J. A., Krantz A. Effectc of yeast on automated cell counting. Am J Clin Pathol., 2006:126, 248-254).
(§2) The peptides were tested for their ability to inhibit fungal growth. Fifty microliters of peptide at a concentration comprised between about 0.2 mM and about 50 mM were added in 96-well U-bottom plates containing phosphate buffer and one of the following fungi: Candida albicans ATCC 10231 and Malassezia pachydermatis ATCC 14522. After 2 h incubation at 37° C., fungi were transferred on the solid medium agar Sabouraud. As a control, fungal cultures were cultured in the absence of peptide.
(§3) The fungal suspension was put in contact for two hours with different concentrations of the peptide at the temperature of 37° C. After incubation, 20 μl were drawn from the wells of each dilution and seeded on the solid medium agar Sabouraud. The inoculum was evenly distributed on the agarized medium by means of a sterile disposable loop. After incubation for 24 h at the temperature of 37° C., counting of the fungal colonies (CFU) was performed.

[2] = test system: Candida albicans ATCC 10231; assay: as above; format: cell-based; conditions: 2 h contact at 37° C., CFU count on agar Sabouraud
Method: as §1, §2, §3

[3] = test system: Pseudomonas aeruginosa ATCC 27853; format: cell-based
Method: (§4) For each bacterial strain, 3-5 morphologically similar colonies were drawn from fresh cultures, inoculated in Brain Hearth Infusion broth liquid medium and incubated at the temperature of 37° C. under shaking at 225 r.p.m. for 3-4 h. Subsequently, the bacterial suspension was centrifuged at 1000 g for 20 min and the thus obtained pellet was resuspended in phosphate buffer 10 mM. Turbidity was measured in a spectrophotometer with absorbance at 600 nm, equivalent in the range 0.08-0.13 to a concentration of about 10^8 CFU/ml. The bacterial suspension was diluted 1:100 in phosphate buffer 10 mM, and within 30 min 50 microliters of such bacterial suspension (10^6 CFU/ml) were inoculated in each well of the microtiter plate, to obtain a final bacterial concentration of about 5×10^5 CFU/ml.
(§5) Several peptides were tested for their ability to inhibit bacterial growth in liquid culture. Fifty microliters of peptide at a concentration comprised between about 0.2 mM and 50 mM were added in 96-well U-bottom plates containing liquid growth medium and one of the following bacteria: Escherichia coli ATCC 25922, P. aeruginosa ATCC 27853, Stenotrophomonas maltophilia ATCC 13637. After 2 hour incubation at 37° C., bacteria were transferred on a solid medium. As a growth control, bacterial cultures were cultured in the absence of peptides.
(§6) The bacterial suspension was put in contact for two hours with different concentrations of the peptide at the temperature of 37° C. After incubation, 20 μl were drawn from the wells of each dilution and seeded on solid medium, agar McConkey. The inoculum was evenly distributed on the agarized medium by means of a sterile disposable loop. After incubation for 24 h at the temperature of 37° C., counting of the bacterial colonies (CFU) was performed.

[4] = test system: Escherichia coli ATCC 25922; format: cell-based; conditions: for LD90 E. coli ATCC 25922: 2 h contact at 37° C., CFU count after 24 h
Method: as §4, §5, §6

[5] = test system: Stenotrophomonas maltophilia ATCC 13637; assay: Broth-microdilution test and subsequent plating on agar, Gram-negative bacteria; format: cell-based; conditions: 2 h contact at 37° C., CFU count after 24 h
Method: as §4, §5, §6

[6] = test system: meticillin-resistant S. aureus ATCC 43300; assay: Broth-microdilution test and subsequent plating on agar, Gram-positive bacteria; format: cell-based, Staphylococcus aureus; conditions: 2 h contact at 37° C., CFU count after 24 h
Method: as §4, with “30 min,” for “30 min”
Several synthetic peptides were tested for their ability to inhibit bacterial growth. Fifty microliters of peptide at a concentration comprised between about 0.2 mM and about 50 mM were added to 96-well U-bottom plates containing phosphate buffer and one of the following bacteria: S. aureus ATCC 25923, meticillin-resistant S. aureus ATCC 43300. After 2 hour incubation at 37° C., bacteria were transferred on a solid medium. As a control, the bacterial cultures were cultured in the absence of peptide.
as §6, with “medium, Columbia” for “medium,”, “agar supplemented with 5% bovine red blood cells for Gram-positive bacteria.” for “agar McConkey.”, “24 hours” for “24 h”

CC[C@H](C)[C@@H]1NC(=O)[C@H](CCCCN)NC(=O)[C@H](C)NC(=O)[C@@H](NC(=O)[C@H](CCCCN)NC(=O)[C@@H](N)Cc2c[nH]cn2)CSSC[C@@H](C(=O)N[C@@H](C)C(=O)O)NC(=O)[C@H](Cc2ccc(O)cc2)NC(=O)[C@H](CCCCN)NC(=O)[C@H](C(C)C)NC(=O)[C@H](Cc2c[nH]cn2)NC(=O)[C@H](C(C)C)NC(=O)CNC(=O)[C@H](CCCNC(=N)N)NC(=O)[C@H](Cc2c[nH]c3ccccc23)NC(=O)[C@H](CCCCN)NC1=O (relative stereo) [Peptide P2041, HIS*LYS*CYS*ALA*LYS*ILE*LYS*TRP*ARG*GLY*VAL*HIS*VAL*LYS*TYR*CYS*ALA]
Inflexion point CENTA (E. coli ML-35pYC; CENTA substrate (periplasmic beta-lactamase)): >500 min
Inflexion point ONPG (E. coli ML-35pYC; ONPG substrate (cytoplasmic beta-galactosidase)): 16.08 min
LD90 Malassezia pachydermatis [1]: 0.85 µM
LD90 Candida albicans [2]: 1.42 µM
LD90 P. aeruginosa ATCC 27853 ([3]; 2 h contact at 37° C., CFU count after 24 h): 2.14 µM
MBC P. aeruginosa ATCC 27853 ([3]; ATCC 27853): 2.08 µg/mL (≈ 1.03 µM)
LD90 E. coli ATCC 25922 [4]: 0.83 µM
LD90 E. coli ATCC 25922 ([4]; listed as 2041): 1.57 μg/ml and 0.83 μM
MBC E. coli ATCC 25922 ([4]; ATCC 25922): 3.05 µg/mL (≈ 1.51 µM)
LD90 S. maltophilia ATCC 13637 [5]: 2.67 µM
LD90 MRSA ATCC 43300 [6]: 0.85 µM
LD90 MRSA ATCC 43300 ([6]; listed as 2041): 0.85 μM and 1.72 μg/ml
